Measurements as given in patent publication US9924721B2 (priority 2013, dated 2018).
Marks after values point to notes of the source that are not given here.

Assays:
[1] = pH 2.7
Phytophthora infestans = experiment: microbe, parasite or virus in culture; assay type: cell-based; details: 8 days incubation
Pythium ultimum = Pythium ultimum in vitro cell test; assay type: cell-based; details: 20 μg/mL of active ingredient; 4 days incubation
Experimental: Pythium ultimum In Vitro Cell Test
• Solvent: DMSO • Culture medium: 14.6 g anhydrous D-glucose (VWR), 7.1 g Mycological Peptone (Oxoid), 1.4 g granulated Yeast Extract (Merck), QSP liter • Inoculum: mycelial suspension
Fungicides were solubilized in DMSO and the solution used to prepare the required range of concentrations. The final concentration of DMSO used in the assay was ≤1%.
Inoculum was prepared from a pre-culture of P. ultimum grown in liquid medium by homogenization using a blender. The concentration of ground mycelium in the inoculum was estimated and adjusted to the desired optical density (OD).
Fungicides were evaluated for their ability to inhibit mycelium growth in liquid culture assay. The compounds were added in the desired concentrations to culture medium containing the mycelial suspension. After 4 days of incubation, the fungicidal efficacy of compounds was determined by spectrometric measurement of mycelium growth. Inhibition of fungal growth was determined by comparing the absorbance values in wells containing the fungicides with the absorbance in control wells without fungicides.

[2] = 0.25 μg/mL of active ingredient

CC(C)(C)OC(=O)C(Br)C(=O)N1CCC(c2nc(C3=NOC(c4ccccc4OS(C)(=O)=O)C3)cs2)CC1 (stereo not shown) [Example I-74]
Log P [1]: 3.24^[a]

CCOC(=O)C(C(=O)N1CCC(c2nc(C3=NOC(c4ccccc4OS(C)(=O)=O)C3)cs2)CC1)n1nc(C(F)(F)F)nc1C (stereo not shown) [Example I-06]
Eff. % (inhibition of fungal growth) (Phytophthora infestans; 20 μg/mL of active ingredient): 100% | Log P [1]: 3.14^[a] | Eff. % (inhibition of fungal growth) (Pythium ultimum): 94%

CCOC(=O)C(C(=O)N1CCC(c2nc(C3=NOC(c4ccccc4OS(C)(=O)=O)C3)cs2)CC1)n1nc(C)nc1C (stereo not shown) [Example I-20]
Eff. % (inhibition of fungal growth) (Phytophthora infestans; 20 μg/mL of active ingredient): 100% | Log P [1]: 2.24^[a] | Eff. % (inhibition of fungal growth) (Pythium ultimum): 87%

CCOC(=O)C(Br)C(=O)N1CCC(c2nc(C3=NOC(c4c(Cl)cccc4OS(C)(=O)=O)C3)cs2)CC1 (stereo not shown) [Example I-34]
Eff. % (inhibition of fungal growth) (Phytophthora infestans; 20 μg/mL of active ingredient): 100% | Log P [1]: 2.92^[a] | Eff. % (inhibition of fungal growth) (Pythium ultimum): 94%

CCCCCC(CC)OC(=O)CC(=O)N1CCC(c2nc(C3=NOC(c4c(F)cccc4OS(C)(=O)=O)C3)cs2)CC1 (stereo not shown) [Example I-48]
Log P [1]: 4.03^[a]

CC(C)(C)OC(=O)C(C(=O)N1CCC(c2nc(C3=NOC(c4ccccc4OS(C)(=O)=O)C3)cs2)CC1)n1nc(C(F)F)cc1C(F)F (stereo not shown) [Example I-66]
Eff. % (inhibition of fungal growth) (Phytophthora infestans; [2]): 100% | Log P [1]: 3.74^[a]

CS(=O)(=O)Oc1cccc(Cl)c1C1CC(c2csc(C3CCN(C(=O)CC(=O)OCc4ccccc4)CC3)n2)=NO1 (stereo not shown) [Example I-76]
Log P [1]: 3.12^[a]

CC(C)OC(=O)C(Br)C(=O)N1CCC(c2nc(C3=NOC(c4ccccc4C=O)C3)cs2)CC1 (stereo not shown) [Example I-29]
Log P [1]: 3.11^[a]

CCCCCC(CC)OC(=O)C(C(=O)N1CCC(c2nc(C3=NOC(c4c(F)cccc4OS(C)(=O)=O)C3)cs2)CC1)n1nc(C(F)F)cc1C(F)F (stereo not shown) [Example I-22]
Log P [1]: 4.04^[a]

C#CCOc1cccc(F)c1C1CC(c2csc(C3CCN(C(=O)C(C(=O)OC(CC)CCCCC)n4nc(C(F)F)cc4C(F)F)CC3)n2)=NO1 (stereo not shown) [Example I-18]
Log P [1]: 5.22^[a]

C#CCOc1ccccc1C1CC(c2csc(C3CCN(C(=O)C(C(=O)OC(C)C)n4nc(C(F)F)cc4C(F)F)CC3)n2)=NO1 (stereo not shown) [Example I-09]
Eff. % (inhibition of fungal growth) (Phytophthora infestans; 20 μg/mL of active ingredient): 98% | Log P [1]: 3.93^[a] | Eff. % (inhibition of fungal growth) (Pythium ultimum): 97%

CCCCCC(CC)OC(=O)C(C(=O)N1CCC(c2nc(C3=NOC(c4ccccc4C=O)C3)cs2)CC1)n1nc(C(F)F)cc1C(F)F (stereo not shown) [Example I-21]
Log P [1]: 5.20^[a]

CC(C)(C)OC(=O)CC(=O)N1CCC(c2nc(C3=NOC(c4c(Cl)cccc4OS(C)(=O)=O)C3)cs2)CC1 (stereo not shown) [Example I-79]
Log P [1]: 3.04^[a]

CCOC(=O)C(Br)C(=O)N1CCC(c2nc(C3=NOC(c4ccccc4C=O)C3)cs2)CC1 (stereo not shown) [Example I-25]
Eff. % (inhibition of fungal growth) (Phytophthora infestans; 20 μg/mL of active ingredient): 100% | Log P [1]: 2.82^[a]

CC(C)OC(=O)C(Br)C(=O)N1CCC(c2nc(C3=NOC(c4c(F)cccc4OS(C)(=O)=O)C3)cs2)CC1 (stereo not shown) [Example I-23]
Eff. % (inhibition of fungal growth) (Phytophthora infestans; [2]): 100% | Log P [1]: 2.97^[a]

C#CCOc1cccc(Cl)c1C1CC(c2csc(C3CCN(C(=O)CC(=O)OC(C)(C)C)CC3)n2)=NO1 (stereo not shown) [Example I-80]
Eff. % (inhibition of fungal growth) (Phytophthora infestans; [2]): 100% | Log P [1]: 3.36^[a]

CC(C)OC(=O)C(Br)C(=O)N1CCC(c2nc(C3=NOC(c4ccccc4OS(C)(=O)=O)C3)cs2)CC1 (stereo not shown) [Example I-37]
Log P [1]: 2.99^[a]

C#CCOc1cccc(Cl)c1C1CC(c2csc(C3CCN(C(=O)C(Br)C(=O)OCc4ccccc4)CC3)n2)=NO1 (stereo not shown) [Example I-69]
Log P [1]: 3.85^[a]

C#CCOc1cccc(Cl)c1C1CC(c2csc(C3CCN(C(=O)C(C(=O)OCc4ccccc4)n4nc(C(F)F)cc4C(F)F)CC3)n2)=NO1 (stereo not shown) [Example I-59]
Eff. % (inhibition of fungal growth) (Phytophthora infestans; [2]): 100% | Log P [1]: 4.28^[a]

CCOC(=O)CC(=O)N1CCC(c2nc(C3=NOC(c4ccccc4C=O)C3)cs2)CC1 (stereo not shown) [Example I-53]
Eff. % (inhibition of fungal growth) (Phytophthora infestans; 20 μg/mL of active ingredient): 100% | Log P [1]: 2.34^[a]

CCOC(=O)C(C(=O)N1CCC(c2nc(C3=NOC(c4ccccc4C=O)C3)cs2)CC1)n1nc(C(F)F)cc1C(F)F (stereo not shown) [Example I-14]
Log P [1]: 3.40^[a]

COCCOC(=O)C(Br)C(=O)N1CCC(c2nc(C3=NOC(c4ccccc4OS(C)(=O)=O)C3)cs2)CC1 (stereo not shown) [Example I-36]
Log P [1]: 2.53^[a]

CC(C)(C)OC(=O)CC(=O)N1CCC(c2nc(C3=NOC(c4ccccc4OS(C)(=O)=O)C3)cs2)CC1 (stereo not shown) [Example I-81]
Log P [1]: 2.80^[a]

C#CCOc1ccccc1C1CC(c2csc(C3CCN(C(=O)C(Br)C(=O)OCc4ccccc4)CC3)n2)=NO1 (stereo not shown) [Example I-70]
Log P [1]: 3.72^[a]

C#CCOc1cccc(F)c1C1CC(c2csc(C3CCN(C(=O)C(Br)C(=O)OCCOC)CC3)n2)=NO1 (stereo not shown) [Example I-24]
Log P [1]: 2.85^[a]

C#CCOc1cccc(F)c1C1CC(c2csc(C3CCN(C(=O)CC(=O)OCCOC)CC3)n2)=NO1 (stereo not shown) [Example I-43]
Log P [1]: 2.43^[a]

CCCCCC(CC)OC(=O)C(Br)C(=O)N1CCC(c2nc(C3=NOC(c4ccccc4OS(C)(=O)=O)C3)cs2)CC1 (stereo not shown) [Example I-39]
Log P [1]: 4.55^[a]

CCCCCC(CC)OC(=O)CC(=O)N1CCC(c2nc(C3=NOC(c4ccccc4OS(C)(=O)=O)C3)cs2)CC1 (stereo not shown) [Example I-45]
Eff. % (inhibition of fungal growth) (Phytophthora infestans; 20 μg/mL of active ingredient): 100% | Log P [1]: 4.07^[a]

C#CCOc1cccc(Cl)c1C1CC(c2csc(C3CCN(C(=O)C(Br)C(=O)OCC)CC3)n2)=NO1 (stereo not shown) [Example I-31]
Log P [1]: 3.20^[a]

CC(C)OC(=O)CC(=O)N1CCC(c2nc(C3=NOC(c4ccccc4OS(C)(=O)=O)C3)cs2)CC1 (stereo not shown) [Example I-58]
Eff. % (inhibition of fungal growth) (Phytophthora infestans; 20 μg/mL of active ingredient): 100% | Log P [1]: 2.56^[a]

CC(C)(C)OC(=O)C(Br)C(=O)N1CCC(c2nc(C3=NOC(c4c(Cl)cccc4OS(C)(=O)=O)C3)cs2)CC1 (stereo not shown) [Example I-72]
Log P [1]: 3.50^[a]

CS(=O)(=O)Oc1ccccc1C1CC(c2csc(C3CCN(C(=O)CC(=O)OCc4ccccc4)CC3)n2)=NO1 (stereo not shown) [Example I-75]
Log P [1]: 2.89^[a]

C#CCOc1ccccc1C1CC(c2csc(C3CCN(C(=O)CC(=O)OC(C)(C)C)CC3)n2)=NO1 (stereo not shown) [Example I-82]
Log P [1]: 3.22^[a]

CS(=O)(=O)Oc1ccccc1C1CC(c2csc(C3CCN(C(=O)C(Br)C(=O)OCc4ccccc4)CC3)n2)=NO1 (stereo not shown) [Example I-68]
Log P [1]: 3.31^[a]

CCOC(=O)C(C(=O)N1CCC(c2nc(C3=NOC(c4ccccc4OS(C)(=O)=O)C3)cs2)CC1)n1cc(C(F)(F)F)nc1C (stereo not shown) [Example I-12]
Log P [1]: 2.99^[a]

CS(=O)(=O)Oc1cccc(Cl)c1C1CC(c2csc(C3CCN(C(=O)C(Br)C(=O)OCc4ccccc4)CC3)n2)=NO1 (stereo not shown) [Example I-67]
Log P [1]: 3.54^[a]

C#CCOc1ccccc1C1CC(c2csc(C3CCN(C(=O)CC(=O)OC(CC)CCCCC)CC3)n2)=NO1 (stereo not shown) [Example I-57]
Log P [1]: 4.56^[a]

C#CCOc1ccccc1C1CC(c2csc(C3CCN(C(=O)C(Br)C(=O)OC(C)C)CC3)n2)=NO1 (stereo not shown) [Example I-32]
Log P [1]: 3.43^[a]

C#CCOc1cccc(F)c1C1CC(c2csc(C3CCN(C(=O)C(Br)C(=O)OC(CC)CCCCC)CC3)n2)=NO1 (stereo not shown) [Example I-35]
Log P [1]: 4.89^[a]

C#CCOc1ccccc1C1CC(c2csc(C3CCN(C(=O)C(C(=O)OCc4ccccc4)n4nc(C(F)F)cc4C(F)F)CC3)n2)=NO1 (stereo not shown) [Example I-62]
Eff. % (inhibition of fungal growth) (Phytophthora infestans; [2]): 100% | Log P [1]: 4.16^[a]

CS(=O)(=O)Oc1cccc(Cl)c1C1CC(c2csc(C3CCN(C(=O)C(C(=O)OCc4ccccc4)n4nc(C(F)F)cc4C(F)F)CC3)n2)=NO1 (stereo not shown) [Example I-61]
Eff. % (inhibition of fungal growth) (Phytophthora infestans; [2]): 100% | Log P [1]: 3.98^[a]

CCOC(=O)CC(=O)N1CCC(c2nc(C3=NOC(c4c(F)cccc4OS(C)(=O)=O)C3)cs2)CC1 (stereo not shown) [Example I-54]
Log P [1]: 2.29^[a]

CC(C)OC(=O)C(C(=O)N1CCC(c2nc(C3=NOC(c4ccccc4C=O)C3)cs2)CC1)n1nc(C(F)F)cc1C(F)F (stereo not shown) [Example I-13]
Eff. % (inhibition of fungal growth) (Phytophthora infestans; [2]): 94% | Log P [1]: 3.70^[a]

CCOC(=O)C(C(=O)N1CCC(c2nc(C3=NOC(c4ccccc4OS(C)(=O)=O)C3)cs2)CC1)n1nc(C(F)(F)F)cc1C (stereo not shown) [Example I-19]
Eff. % (inhibition of fungal growth) (Phytophthora infestans; 20 μg/mL of active ingredient): 100% | Log P [1]: 3.42^[a]

CCCCCC(CC)OC(=O)C(Br)C(=O)N1CCC(c2nc(C3=NOC(c4ccccc4C=O)C3)cs2)CC1 (stereo not shown) [Example I-28]
Eff. % (inhibition of fungal growth) (Phytophthora infestans; 20 μg/mL of active ingredient): 100% | Log P [1]: 4.83^[a]

C#CCOc1ccccc1C1CC(c2csc(C3CCN(C(=O)CC(=O)OCc4ccccc4)CC3)n2)=NO1 (stereo not shown) [Example I-77]
Log P [1]: 3.30^[a]

C#CCOc1cccc(Cl)c1C1CC(c2csc(C3CCN(C(=O)C(Br)C(=O)OC(C)(C)C)CC3)n2)=NO1 (stereo not shown) [Example I-71]
Eff. % (inhibition of fungal growth) (Phytophthora infestans; [2]): 100% | Log P [1]: 3.84^[a]

CC(C)(C)OC(=O)C(C(=O)N1CCC(c2nc(C3=NOC(c4c(Cl)cccc4OS(C)(=O)=O)C3)cs2)CC1)n1nc(C(F)F)cc1C(F)F (stereo not shown) [Example I-64]
Eff. % (inhibition of fungal growth) (Phytophthora infestans; [2]): 100% | Log P [1]: 4.00^[a]

CCCCCC(CC)OC(=O)C(C(=O)N1CCC(c2nc(C3=NOC(c4ccccc4OS(C)(=O)=O)C3)cs2)CC1)n1nc(C(F)F)cc1C(F)F (stereo not shown) [Example I-10]
Eff. % (inhibition of fungal growth) (Phytophthora infestans; 20 μg/mL of active ingredient): 97% | Log P [1]: 4.96^[a]

C#CCOc1cccc(Cl)c1C1CC(c2csc(C3CCN(C(=O)CC(=O)OCc4ccccc4)CC3)n2)=NO1 (stereo not shown) [Example I-78]
Eff. % (inhibition of fungal growth) (Phytophthora infestans; [2]): 88% | Log P [1]: 3.45^[a]

C#CCOc1ccccc1C1CC(c2csc(C3CCN(C(=O)C(Br)C(=O)OC(C)(C)C)CC3)n2)=NO1 (stereo not shown) [Example I-73]
Log P [1]: 3.68^[a]
